The test addresses PARP1 (poly ADP-ribose polymerase 1) (Homo sapiens, UniProt P09874). The test can be described thus: PARP1 enzymatic ELISA (histone-coated plates, biotinylated NAD+, HRP luminescence). The test is classed as biochemical.

The structures appear in SMILES notation. Where two headings read alike, the source gives them in different places.

The term IC50 denotes the concentration that inhibits the measured activity by half.

PARP1 (poly ADP-ribose polymerase 1), sequence (P09874 2-1014): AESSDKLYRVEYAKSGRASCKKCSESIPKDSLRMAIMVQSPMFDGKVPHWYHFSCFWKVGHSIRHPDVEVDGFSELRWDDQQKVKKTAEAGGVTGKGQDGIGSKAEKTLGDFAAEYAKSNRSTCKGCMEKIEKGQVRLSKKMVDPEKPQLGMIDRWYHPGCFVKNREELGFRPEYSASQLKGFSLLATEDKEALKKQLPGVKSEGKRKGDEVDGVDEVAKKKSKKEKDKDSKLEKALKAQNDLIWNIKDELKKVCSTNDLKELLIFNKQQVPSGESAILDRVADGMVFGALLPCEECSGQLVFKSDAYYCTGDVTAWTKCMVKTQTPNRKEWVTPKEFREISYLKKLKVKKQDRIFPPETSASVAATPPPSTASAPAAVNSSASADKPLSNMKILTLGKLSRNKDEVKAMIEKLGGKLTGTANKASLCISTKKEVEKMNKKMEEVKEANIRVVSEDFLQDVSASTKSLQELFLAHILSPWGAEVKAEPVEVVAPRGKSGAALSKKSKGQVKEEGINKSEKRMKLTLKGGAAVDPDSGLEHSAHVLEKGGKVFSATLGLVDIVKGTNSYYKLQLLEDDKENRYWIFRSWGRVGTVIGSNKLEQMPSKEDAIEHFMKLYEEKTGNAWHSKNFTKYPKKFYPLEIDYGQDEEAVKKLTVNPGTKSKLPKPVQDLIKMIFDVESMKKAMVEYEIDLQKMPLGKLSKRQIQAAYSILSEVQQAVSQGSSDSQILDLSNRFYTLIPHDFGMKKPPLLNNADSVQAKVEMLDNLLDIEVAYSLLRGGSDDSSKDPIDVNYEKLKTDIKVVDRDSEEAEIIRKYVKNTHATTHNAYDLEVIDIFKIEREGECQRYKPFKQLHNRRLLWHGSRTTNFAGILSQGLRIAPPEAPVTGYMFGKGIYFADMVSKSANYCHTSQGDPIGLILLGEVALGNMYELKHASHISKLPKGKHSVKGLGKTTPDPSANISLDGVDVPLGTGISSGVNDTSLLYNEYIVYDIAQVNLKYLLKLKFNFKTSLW

On to `COc1c2ccoc2nc2c(O)cccc12` [compound 3, 8-hydroxy dictanmnine], for which half-maximal inhibition (IC50) was put at 44.9 ± 8.4 µM.

The compound `COc1ccc2cc3[n+](cc2c1OC)CCc1cc(O)c(O)cc1-3` [compound 2, demethyleneberberine] gave an IC50 of 2 ± 0.8 µM.

For the compound `COc1ccc2ccc(=O)oc2c1CC=C(C)C` [compound 5, osthol], half-maximal inhibition (IC50) was put at 76.5 ± 12.4 µM.

On to `COc1ccc2ccc(=O)oc2c1CC(O)C(C)(C)O` (stereo not shown) [compound 4, meranzin hydrate], for which, where the note is “read-out: IC50”, the IC50 turned out to be 67.2 ± 7.6 µM.

The record behind these values is article PMC13284649, “Discovery of the PARP1 Inhibitors from Natural Compounds Using Structure-Based Virtual Screening and Bioactivity Evaluation” (Medicinal Chemistry (Shariqah (United Arab Emirates), 2025).
